Measured values published in US4966893A, “Method for treatment of senile dementia” (priority 1989, dated 1990).

Key:
[1] = test system: synaptosomes from whole rat brain; assay: release of 3H-ACh from synaptosomes under low [K] and high [K] conditions; type: cell-based; settings: FIG. 1
Protocol: Pinched off nerve endings (synaptosomes) from whole rat brain were first incubated in the presence of the precursor ^3 H-choline, which is converted intracellularly to ^3 H-ACh. The release of ACh from synaptosomes was quantitated under low [K] and high [K] conditions intended to simulate physiological stimulation.

rat brain synaptosomes = assay: resting and voltage dependent uptake of 45Ca into synaptosomes; type: cell-based; settings: compared with depolarized (52.5 K) uptake, FIG. 6
Description: If this compound were acting as a non-specific depolarizing agent, one would predict the resting uptake of ^45 Ca would be stimulated several fold, to the same level as the depolarized (52.5 K) uptake.

synaptosomes = assay: electrically stimulated 3H-acetylcholine release from perfused synaptosomes; type: cell-based, rat; settings: for electrically stimulated release of ACh (S2/S1 ratio): 10^-6 M drug during the last 25 minutes of perfusion, electrical field stimulation, FIGS. 2 and 3
Protocol: Using a different protocol, synaptosomes, which had been previously incubated with ^3 H-choline, as in the first series of experiments, were continually perfused with HEPES-buffered Krebs solution. The release of ACh was effected by subjecting the synaptosomes to electrical field stimulation, which more closely mimics physiological stimulation. […] The results obtained by calculating the ratio of the amounts of ACh released during the two periods of electrical stimulation (the areas under the curves, S2/S1) indicate that both Rb1 and Rg1 increase the electrically stimulated release. In addition, Rg1 stimulates the resting release of ^3 H-ACh, as indicated, by the increase in the resting efflux of ^3 H-ACh when the drug was first added. While the net amount of ^3 H-ACh released in each run can vary, depending on the amount of protein on the filter and aging of the synaptosomes, the S2/S1 ratio remains quite constant from run to run using a given chamber. Therefore, in each experiment the same chamber was used for both control and test-drug runs.

SMILES: CC(C)=CCC[C@](C)(O[C@@H]1O[C@H](CO[C@@H]2O[C@H](CO)[C@@H](O)[C@H](O)[C@H]2O)[C@@H](O)[C@H](O)[C@H]1O)[C@H]1CC[C@]2(C)[C@@H]1[C@H](O)C[C@@H]1[C@@]3(C)CC[C@H](O[C@@H]4O[C@H](CO)[C@@H](O)[C@H](O)[C@H]4O[C@@H]4O[C@H](CO)[C@@H](O)[C@H](O)[C@H]4O)C(C)(C)[C@@H]3CC[C@]12C [Rb1, ginsenoside Rb1]
- release of 3H-ACh [1]: increased
- resting uptake of 45Ca (rat brain synaptosomes): only a minimal increase
- electrically stimulated release of ACh (S2/S1 ratio) (synaptosomes): increase

SMILES: CC(C)=CCC[C@](C)(O[C@@H]1O[C@H](CO)[C@@H](O)[C@H](O)[C@H]1O)[C@H]1CC[C@]2(C)[C@@H]1[C@H](O)C[C@@H]1[C@@]3(C)CC[C@H](O)C(C)(C)[C@@H]3[C@@H](O[C@@H]3O[C@H](CO)[C@@H](O)[C@H](O)[C@H]3O)C[C@]12C [Rg1, ginsenoside Rg1]
- electrically stimulated release of ACh (S2/S1 ratio) (synaptosomes): increase
- resting release (resting efflux) of 3H-ACh (synaptosomes; 10^-6 M drug, when the drug was first added): stimulates
